Holding throughout (test): ≥ marks a high value that may be exact or a test limit, other limits are often not marked, values filed in µg/mL are converted to µM
The subject of assay [1] is Bacillus subtilis ATCC 6633.
Assay [2] has as its system Escherichia coli ATCC 10536.
The test system of assay [3] is Escherichia coli DH5alpha.
The test system of assay [4] is Staphylococcus aureus ATCC 9144.
The test system of assay [5] is Aeromonas hydrophila.
In assay [6] the test system is Bacillus cereus.
Assay [7] concerns Bacillus subtilis.
Assay [8] relates to Candida albicans.
The subject of assay [9] is Corynebacterium glutamicum.
Assay [10] concerns Cryptococcus neoformans.
Assay [11] concerns Escherichia coli.
Assay [12] concerns Pseudomonas aeruginosa.
In assay [13] the test system is Shigella flexneri.
In assay [14] the test system is Staphylococcus aureus.
In assay [15] the test system is Staphylococcus epidermidis.
The subject of assay [16] is Vibrio alginolyticus.
The test system of assay [17] is Vibrio parahaemolyticus.
Assay [18] deals with Bacillus subtilis 168 HT.
Assay [19] has as its system Escherichia coli MG1655.
Assay [20] has as its system Burkholderia cepacia ATCC 25416.
The subject of assay [21] is Escherichia coli DSM 1103.
Assay [22] relates to Escherichia coli UB1005.
The test system of assay [23] is Klebsiella pneumoniae DSM 681.
In assay [24] the test system is Pseudomonas aeruginosa DSM 1128.
Assay [25] relates to Pseudomonas aeruginosa H374.
Assay [26] has as its system Pseudomonas aeruginosa H547.
The test system of assay [27] is Pseudomonas aeruginosa H744.
Assay [28] relates to Pseudomonas aeruginosa K799.
For assay [29], the system named is Pseudomonas aeruginosa Z61.
The subject of assay [30] is Salmonella enterica subsp. enterica serovar Typhimurium ATCC 14028s.
Assay [31] concerns Staphylococcus aureus ATCC 25923.
Assay [32] deals with Streptococcus pneumoniae DSM 11865.
For assay [33], the system named is Aspergillus fumigatus.
For assay [34], the system named is Candida parapsilosis ATCC 22019.
Assay [35] deals with Escherichia coli ATCC 9637.
Assay [36] concerns Klebsiella pneumoniae ATCC 27736.
Assay [37] relates to Pseudomonas aeruginosa ATCC BAA-427.
For assay [38], the system named is Sporothrix schenckii.
For assay [39], the system named is Trichophyton mentagrophytes.

Converted amounts (≈) assume the structure as drawn.

Turning to `CC[C@H](C)[C@H](NC(=O)CN)C(=O)NCC(=O)N[C@@H](C)C(=O)N[C@H](C(=O)N[C@@H](CC(C)C)C(=O)N[C@@H](CCCCN)C(=O)N[C@H](C(=O)N[C@@H](C)C(=O)N[C@H](C(=O)N[C@H](C(=O)NCC(=O)N[C@@H](C)C(=O)N1CCC[C@H]1C(=O)N[C@@H](C)C(=O)N[C@@H](CC(C)C)C(=O)N[C@H](C(=O)N[C@@H](CO)C(=O)N[C@@H](Cc1c[nH]c2ccccc12)C(=O)N[C@H](C(=O)N[C@@H](CCCCN)C(=O)N[C@@H](CCCN=C(N)N)C(=O)N[C@@H](CCCCN)C(=O)N[C@@H](CCCN=C(N)N)C(=O)N[C@@H](CCC(N)=O)C(=O)N[C@@H](CCC(N)=O)C(N)=O)[C@@H](C)CC)[C@@H](C)CC)[C@@H](C)O)[C@@H](C)O)C(C)C)C(C)C` [GIGAVLKVATTGAPALISWIKRKRQQ], the MIC came out at 20 µM (≈ 55.2 µg/mL) in assay [1], 4.5 µM (≈ 12.4 µg/mL) in assay [2], 4.3 µM (≈ 11.9 µg/mL) in assay [3] and 20 µM (≈ 55.2 µg/mL) in assay [4].
In the case of `CC[C@H](C)[C@H](NC(=O)[C@H](CC(C)C)NC(=O)[C@H](CCC(=O)O)NC(=O)[C@@H]1CCCN1C(=O)[C@H](CC(C)C)NC(=O)[C@H](Cc1cnc[nH]1)NC(=O)[C@@H](NC(=O)[C@H](CCCCN)NC(=O)[C@@H](NC(=O)[C@H](Cc1ccccc1)NC(=O)[C@H](CCCCN)NC(=O)[C@H](CCCN=C(N)N)NC(=O)[C@H](CS)NC(=O)[C@H](CC(C)C)NC(=O)[C@H](CO)NC(=O)[C@H](CCCCN)NC(=O)[C@H](CC(C)C)NC(=O)[C@H](CC(C)C)NC(=O)CN)C(C)C)C(C)C)C(=O)N[C@@H](CCC(=O)O)C(=O)N[C@@H](CCC(=O)O)C(=O)N[C@@H](CC(C)C)C(=O)N[C@H](C(=O)N[C@H](C(=O)N[C@H](C(=O)N[C@@H](CC(=O)O)C(=O)O)[C@@H](C)O)[C@@H](C)O)[C@@H](C)O` [GLLKSLCRKFVKVHLPELIEELTTTD], the minimum inhibitory concentration (MIC) in [5] was at least 50 µM; in assay [6] it was at least 50 µM; in assay [7], at least 50 µM; in assay [8] it was above 50 µM; in assay [9], 8.84 µM (≈ 26.4 µg/mL); in assay [10], at least 50 µM. Moreover, the MIC is 35.4 µM (≈ 105 µg/mL) in assay [11]; above 50 µM in assay [12]; at least 50 µM in [13]; above 50 µM in assay [14]; at least 50 µM in assay [15]; at least 50 µM in assay [16]. In assay [17], this molecule had an MIC of at least 50 µM.
As to `CC[C@H](C)[C@H](N)C(=O)N[C@@H](CO)C(=O)N[C@@H](CCCN=C(N)N)C(=O)N[C@@H](C)C(=O)N[C@@H](CS)C(=O)N[C@@H](CC(C)C)C(=O)N[C@H](C(=O)N[C@@H](CCSC)C(=O)N[C@@H](CCCCN)C(=O)N[C@H](C(=O)N[C@@H](CCCN=C(N)N)C(=O)N[C@@H](CCCN=C(N)N)C(=O)N[C@@H](CCCCN)C(=O)N[C@@H](CCCCN)C(=O)O)C(C)C)[C@@H](C)CC` [ISRACLIMKVRRKK], the minimum inhibitory concentration (MIC) in assay [18] was 9.4 µM (≈ 16 µg/mL); in assay [19] it was at least 37.6 µM.
Turning to `CC[C@H](C)[C@H](NC(=O)CNC(=O)[C@@H](NC(=O)[C@H](CCCCN)NC(=O)[C@H](CCCCN)NC(=O)[C@H](Cc1ccccc1)NC(=O)[C@H](CC(C)C)NC(=O)[C@H](CCCCN)NC(=O)[C@H](Cc1c[nH]c2ccccc12)NC(=O)[C@@H](N)CCCCN)[C@@H](C)CC)C(=O)NCC(=O)N[C@@H](C)C(=O)N[C@H](C(=O)N[C@@H](CC(C)C)C(=O)N[C@@H](CCCCN)C(=O)N[C@H](C(=O)N[C@@H](CC(C)C)C(=O)N[C@H](C(=O)N[C@H](C(=O)NCC(=O)N[C@@H](CC(C)C)C(=O)N1CCC[C@H]1C(=O)N[C@@H](C)C(=O)N[C@@H](CC(C)C)C(=O)N[C@@H](CCCCN)C(=O)N[C@@H](CC(C)C)C(=O)N[C@H](C(=O)N[C@@H](CCCCN)C(=O)O)[C@@H](C)O)[C@@H](C)O)[C@@H](C)O)C(C)C)C(C)C` [KWKLFKKIGIGAVLKVLTTGLPALKLTK], the MIC in [20] was 20.9 µM (≈ 64 µg/mL); in assay [21], 2.04 µM (≈ 6.25 µg/mL); in [22], 0.652 µM (≈ 2 µg/mL); in assay [23] it was 2.04 µM (≈ 6.25 µg/mL); in assay [24] it was 1.02 µM (≈ 3.13 µg/mL); in assay [25], 0.652 µM (≈ 2 µg/mL). Besides, the MIC came to 1.3 µM (≈ 4 µg/mL) in assay [26]; 0.652 µM (≈ 2 µg/mL) in [27]; 0.979 µM (≈ 3 µg/mL) in [28]; 0.652 µM (≈ 2 µg/mL) in assay [29]; 0.979 µM (≈ 3 µg/mL) in [30]; 2.04 µM (≈ 6.25 µg/mL) in [31]. The molecule also returned a minimum inhibitory concentration (MIC) in assay [32] of 2.04 µM (≈ 6.25 µg/mL).
For the molecule `CC(C)C[C@H](NC(=O)[C@H](CC(C)C)NC(=O)[C@H](CCCN=C(N)N)NC(=O)[C@H](CCCN=C(N)N)NC(=O)[C@H](C)NC(=O)[C@H](Cc1c[nH]c2ccccc12)NC(=O)[C@H](CCCN=C(N)N)NC(=O)[C@H](C)NC(=O)[C@H](C)NC(=O)[C@H](CCCN=C(N)N)NC(=O)[C@H](CCCN=C(N)N)NC(=O)[C@@H](N)CC(C)C)C(=O)N[C@@H](CCCN=C(N)N)C(=O)N[C@@H](CCCN=C(N)N)C(=O)O` [LRRAARWARRLLRR], the minimum inhibitory concentration (MIC) came out at 27 µM (≈ 50 µg/mL) in [33]; 1.7 µM (≈ 3.15 µg/mL) in [6]; 6.76 µM (≈ 12.5 µg/mL) in [34]; 13.5 µM (≈ 25 µg/mL) in assay [35]; 3.38 µM (≈ 6.25 µg/mL) in assay [36]; 13.5 µM (≈ 25 µg/mL) in [37]. Besides, the MIC was 6.76 µM (≈ 12.5 µg/mL) in assay [38], 1.7 µM (≈ 3.15 µg/mL) in [31] and at least 54 µM in assay [39].

Source of the values: DBAASP.
